# Test results from patent US7795457B2, “Carbamate compounds” (Kosan Biosciences Incorporated, priority 2007, dated 2010).
# Like-named read-outs stand apart in the source and are kept apart here.
# Assays:
# HepG2 = assay: Inhibition of tumor cell proliferation, HepG2; type: cell-based; conditions: Homo sapiens
# Method: (§1) The biological activity of compounds of this invention was evaluated by measuring their inhibitory effect on the proliferation of various tumor cell lines. HCT-116 is a human colon cancer cell line. LNCap is a human prostate cancer cell line. SiHa is an HPV-16 positive human cervical cancer line.
# (§2) Table D presents additional data for the activity of compounds A-1 and A-4 against various cell lines. In some instances, comparative data against leptomycin B (LMB) and/or compound VI (Dong et al., US 2005/0272727 A1 (2005) is also provided.
# (§3) The additional cell lines tested against represent a variety of different cancers: bladder cancer (UM-UC-3), breast cancer (BT474, HCC1937, MDA-MB468, NCI-ADR), CNS cancer (U87MG (glioma), SKNSH (neuroblastoma)), colon cancer (LoVo, LS411N, LS513), head and neck cancer (CAL-27, FaDu), leukemia (CCRF-CEM, MOLT-4), liver cancer (HepG2), lung cancer (A549, NCI-H23, NCI-H358), melanoma (Colo829), ovarian cancer (OVCAR-4), pancreatic cancer (BxPC-3, Mia-PaCa2), prostate cancer (22Rv1, PC-3), and renal cancer (A-498, Caki-1).
# SKNSH = assay: Inhibition of tumor cell proliferation, SKNSH; type: cell-based; conditions: Homo sapiens, SK-N-SH, read-out: IC50, nM, SKNSH
# Method: as §1, §2, §3
# U87MG = assay: Inhibition of tumor cell proliferation, U87MG; type: cell-based; conditions: Homo sapiens, U-87 MG
# Method: as §1, §2, §3
# NCI-H358 = assay: Inhibition of tumor cell proliferation, NCI-H358; type: cell-based; conditions: Homo sapiens
# Method: as §1, §2, §3
# NCI-ADR = assay: Inhibition of tumor cell proliferation, NCI-ADR; type: cell-based; conditions: Homo sapiens, NCI/ADR-RES, read-out: IC50, nM, NCI-ADR
# Method: as §1, §2, §3
# A549 = assay: Inhibition of tumor cell proliferation, A549; type: cell-based; conditions: Homo sapiens, read-out: IC50, nM, A549
# Method: as §1, §2, §3
# LoVo = assay: Inhibition of tumor cell proliferation, LoVo; type: cell-based; conditions: Homo sapiens, exposure time 1 h
# Method: as §1, §2, §3
# Colo829 = assay: Inhibition of tumor cell proliferation, Colo829; type: cell-based; conditions: Homo sapiens, COLO-829
# Method: as §1, §2, §3
# FaDu = assay: Inhibition of tumor cell proliferation, FaDu; type: cell-based; conditions: Homo sapiens
# Method: as §1, §2, §3
# NCI-H23 = assay: Inhibition of tumor cell proliferation, NCI-H23; type: cell-based; conditions: Homo sapiens
# Method: as §1, §2, §3
# BT474 = assay: Inhibition of tumor cell proliferation, BT474; type: cell-based; conditions: Homo sapiens, BT-474
# Method: as §1, §2, §3
# Mia-PaCa2 = assay: Inhibition of tumor cell proliferation, Mia-PaCa2; type: cell-based; conditions: Homo sapiens, MIA PaCa-2
# Method: as §1, §2, §3
# HCC1937 = assay: Inhibition of tumor cell proliferation, HCC1937; type: cell-based; conditions: Homo sapiens
# Method: as §1, §2, §3
# LS411N = assay: Inhibition of tumor cell proliferation, LS411N; type: cell-based; conditions: Homo sapiens, LS-411N
# Method: as §1, §2, §3
# Caki-1 = assay: Inhibition of tumor cell proliferation, Caki-1; type: cell-based; conditions: Homo sapiens, exposure time 1 h
# Method: as §1, §2, §3
# 22Rv1 = assay: Inhibition of tumor cell proliferation, 22Rv1; type: cell-based; conditions: Homo sapiens
# Method: as §1, §2, §3
# MOLT-4 = assay: Inhibition of tumor cell proliferation, MOLT-4; type: cell-based; conditions: Homo sapiens, exposure time 72 h
# Method: as §1, §2, §3
# OVCAR-4 = assay: Inhibition of tumor cell proliferation, OVCAR-4; type: cell-based; conditions: Homo sapiens
# Method: as §1, §2, §3
# UM-UC-3 = assay: Inhibition of tumor cell proliferation, UM-UC-3; type: cell-based; conditions: Homo sapiens, read-out: IC50, nM, UM-UC-3
# Method: as §1, §2, §3
# CAL-27 = assay: Inhibition of tumor cell proliferation, CAL-27; type: cell-based; conditions: Homo sapiens
# Method: as §1, §2, §3
# CCRF-CEM = assay: Inhibition of tumor cell proliferation, CCRF-CEM; type: cell-based; conditions: Homo sapiens, exposure time 72 h
# Method: as §1, §2, §3
# PC-3 = assay: Inhibition of tumor cell proliferation, PC-3; type: cell-based; conditions: Homo sapiens
# Method: as §1, §2, §3
# LS513 = assay: Inhibition of tumor cell proliferation, LS513; type: cell-based; conditions: Homo sapiens, LS-513
# Method: as §1, §2, §3
# A-498 = assay: Inhibition of tumor cell proliferation, A-498; type: cell-based; conditions: Homo sapiens, A498; exposure time 1 h
# Method: as §1, §2, §3
# HCT-116 = assay: Inhibition of tumor cell proliferation, HCT-116; type: cell-based, human; conditions: Homo sapiens, HCT-116, read-out: Cancer Cell Line (IC50, nM) HCT-116
# Method: as §1
# LNCap = assay: Inhibition of tumor cell proliferation, LNCap; type: cell-based, human; conditions: Homo sapiens, LNCaP, read-out: Cancer Cell Line (IC50, nM) LNCap
# Method: as §1
# SiHa = assay: Inhibition of tumor cell proliferation, SiHa; type: cell-based, human; conditions: Homo sapiens, SiHa, read-out: Cancer Cell Line (IC50, nM) SiHa
# Method: as §1
# CRM1 substrate RanBP1 = assay: Nuclear export block (RanBP1 localization, recovery after compound removal); type: cell-based; conditions: recovery of cytoplasmic RanBP1 localization after compound washout (typically 1 h exposure; 8, 24 or 48 h recovery)
# Method: The nuclear export blocking capability of compounds of this invention was evaluated as follows:
# 1-5×10^4 cells were seeded onto 12 mm glass coverslips or wells of a chamber slide (for example, Lab-Tek #177445). Cells were grown overnight at 37° C. to allow cells to attach to the surface. Media was removed and replaced with media containing the desired test compound and incubated the required time period (typically 1 h). For recovery experiments, cells were washed with PBS or media and incubated in media without test compound for the desired recovery periods (typically 8, 24, or 48 h). The media was removed and coverslips/wells were washed with PBS pH 7.4 for 1 minute. Coverslips or slides were fixed with 3.7% formaldehyde in PBS for 20 minutes at room temperature, washed three times in PBS, and stained for the CRM1 substrate RanBP1.
# Coverslips or chamber slides were permeabilized and blocked in 10% donkey serum, 0.1% Triton X-100 in PBS for 30 minutes at room temperature. Primary antibodies were diluted in PBS and incubated for 1 hour at room temperature: goat-anti-RanBP1 (Santa Cruz Biotechnology, sc-1160; 1:50 dilution) and mouse-anti-tubulin (Sigma, T9026; 1:400). Cells were washed 3×5 minutes in PBS. Secondary antibodies donkey-anti-goat Cy3 (705-165-147, Jackson Immunoresearch) and donkey anti-mouse FITC (715-095-150, Jackson Immunoresearch) were diluted 1:200 in PBS and incubated for 1 hour at room temperature. Secondary antibody was removed and cells were stained with a nuclear dye such as DAPI (Sigma, D8417; 2.5 ug/mL in PBS) or Hoechst 33342 (Molecular Probes, H3570; 100 ng/mL in PBS) for 5 minutes at room temperature. Cells were washed 3×5 minutes in PBS and coverslips were mounted with FluorSave (EMD Biosciences, 80058-108). Nuclear (N) or cytoplasmic (C) localization of RanBP1 was examined using a 40× objective on a Zeiss Axiovert 200 inverted epiflourescence microscope. Nuclear localization (N>C) was confirmed after the initial drugging period.
smiles,measurement,setting,value
"CCC(=C/[C@H](C)C/C=C/C(C)=C/[C@@H](C)C(=O)[C@@H](C)[C@H](O)[C@@H](C)C/C(C)=C/C(=O)NCCc1cccnc1)/C=C/[C@@H]1OC(=O)C=C[C@@H]1C [VI, reference compound]",IC50,HepG2; exposure time 1 h,3.2 nM
same,IC50,HepG2; exposure time 72 h,0.7 nM
same,IC50,SKNSH; 1 h,2.2 nM
same,IC50,SKNSH; 72 h,0.5 nM
same,IC50,U87MG; exposure time 1 h,5 nM
same,IC50,U87MG; exposure time 72 h,0.6 nM
same,IC50,NCI-H358; exposure time 1 h,1.6 nM
same,IC50,NCI-H358; exposure time 72 h,0.4 nM
same,IC50,NCI-ADR; 1 h,77.3 nM
same,IC50,NCI-ADR; 72 h,13 nM
same,IC50,"A549; A549, 1 h",3.8 nM
same,IC50,"A549; A549, 72 h",3 nM
same,IC50,LoVo,2.5 nM
same,IC50,Colo829; exposure time 1 h,2.1 nM
same,IC50,Colo829; exposure time 72 h,0.3 nM
same,IC50,FaDu; exposure time 1 h,7.3 nM
same,IC50,FaDu; exposure time 72 h,1 nM
same,IC50,NCI-H23; exposure time 1 h,2.6 nM
same,IC50,NCI-H23; exposure time 72 h,0.4 nM
same,IC50,BT474; exposure time 1 h,2.1 nM
same,IC50,BT474; exposure time 72 h,0.8 nM
same,IC50,Mia-PaCa2; exposure time 1 h,5 nM
same,IC50,Mia-PaCa2; exposure time 72 h,1.7 nM
same,IC50,HCC1937; exposure time 1 h,5.7 nM
same,IC50,HCC1937; exposure time 72 h,4.3 nM
same,IC50,LS411N; exposure time 1 h,2.9 nM
same,IC50,LS411N; exposure time 72 h,0.5 nM
same,IC50,Caki-1,4.5 nM
same,IC50,22Rv1; exposure time 1 h,1.8 nM
same,IC50,22Rv1; exposure time 72 h,0.3 nM
same,IC50,MOLT-4,2.9 nM
same,IC50,OVCAR-4; exposure time 1 h,6.7 nM
same,IC50,OVCAR-4; exposure time 72 h,1.5 nM
same,IC50,"UM-UC-3; UMUC3, 1 h",2.6 nM
same,IC50,"UM-UC-3; UMUC3, 72 h",0.3 nM
same,IC50,CAL-27; exposure time 1 h,0.7 nM
same,IC50,CAL-27; exposure time 72 h,0.3 nM
same,IC50,CCRF-CEM,0.8 nM
same,IC50,PC-3; exposure time 1 h,3.3 nM
same,IC50,PC-3; exposure time 72 h,0.7 nM
same,IC50,LS513; exposure time 1 h,5.5 nM
same,IC50,LS513; exposure time 72 h,0.9 nM
same,IC50,A-498,4.8 nM
"CCC(=C/[C@H](C)C/C=C/C(C)=C/[C@@H](C)C(=O)[C@@H](C)[C@H](O)[C@@H](C)C/C(C)=C/C(=O)O)/C=C/[C@@H]1OC(=O)C=C[C@@H]1C [Leptomycin B, reference compound]",IC50,SKNSH; exposure time 1 h,4.1 nM
same,IC50,SKNSH; exposure time 72 h,0.4 nM
same,IC50,NCI-ADR; exposure time 1 h,33.8 nM
same,IC50,"A549; A549, exposure time 72 h",0.55 nM
same,IC50,HCT-116; exposure time to compound 1 h,4.3 nM
same,IC50,HCT-116; exposure time to compound 72 h,0.32 nM
same,IC50,LNCap; exposure time to compound 1 h,3.3 nM
same,IC50,LNCap; exposure time to compound 72 h,0.3 nM
same,IC50,"UM-UC-3; UMUC3, exposure time 72 h",0.3 nM
same,IC50,SiHa; exposure time to compound 1 h,2.1 nM
same,IC50,SiHa; exposure time to compound 72 h,0.4 nM
same,Nuclear Export Block,CRM1 substrate RanBP1,Slow recovery
